Measurements taken from patent US20020107195A1, “Method for inducing chemotaxis in endothelial cells by administering stromal cell derived factor-1alpha” (SmithKline Beecham Corporation, priority 1998, published 2002).
“Also recorded” adds a separate entry of the source. *1 amine or outer side, *2 acyl side, *3 side chain or, on linkers, in order; H or OH if unused. Where a SMILES comes first, the peptide text is derived from it. Bridges are numbered along the chain shown (N, C = ends). Roman numbers before positions name the chains, in order. [ ]: non-standard residue; d: D form. Actinocin(9to1) = Cc1c2oc3c(C)ccc(C(=O)[*:1])c3nc-2c(C(=O)[*:2])c(N)c1=O; NMeV = CN[C@H](C(=O)O)C(C)C; Sar = CNCC(=O)O

B1: MIP-1α: chemokine from R&D Systems (protein, UniProt P10147 24-92, looked up)
C-C motif chemokine 3: SLAADTPTACCFSYTSRQIPQNFIADYFETSSQCSKPGVIFLTKRSRQVCADPSEEWVQKYVSDLELSA
B2: RANTES: chemokine from R&D Systems (protein, UniProt P13501 24-91, looked up)
C-C motif chemokine 5: SPYSSDTTPCCFAYIARPLPRAHIKEYFYTSGKCSNPAVVFVTRKNRQVCANPEKKWVREYINSLEMS
B3: PF-4: chemokine from R&D Systems (protein, UniProt P02776 32-101, looked up)
Platelet factor 4: EAEEDGDLQCLCVKTTSQVRPRHITSLEVIKAGPHCPTAQLIATLKNGRKICLDLQAPLYKKIIKKLLES

What was measured:
Format in all cases: cell-based, human
CXCR4 mRNA = assay: Northern blot analysis of steady state CXCR4 mRNA levels in HUVEC treated with mediators; settings: for CXCR4 mRNA levels (normalized against GAPDH): HUVEC, after 24 hours of treatment
Experimental: Total RNA (10 μg/lane) was fractionated on 1% agarose-formaldehyde gels, transferred to a nylon membrane (Amersham Corp., Piscataway, N.J.) and covalently linked with a UV crosslinker (Stratagene Inc., La Jolla, Calif.). For Northern analysis, 515-base pair size cDNA probes of CXCR1, CXCR2, CXCR3, CXCR4, CCR1, CCR2 and CCR3, were used. The GAPDH gene probe (Clontech, Palo Alto, Calif.) was used to normalize RNA sample differences in each lane. The probes were labeled with [a-^32P] dCTP using a random-prime labeling kit (Promega Corp., Madison, Wis.), and hybridized overnight at 42° C. in 6X SSC buffer (1X SSC=150 mM NaCL, 15 mM Na Citrate), .1% sodium dodecyl sulfate, 5X Denhardt's solution, 50% formamide, and 100 μg/ml denatured salmon sperm DNA. Membranes were washed with a final stringency of 0.2X SSC at 60° C., and analyzed with a phosphorimager (Molecular Dynamics, Inc., Sunnyvale, Calif.) after exposure at room temperature for 3-5 days. Densitometry was used for quantitative analysis.
CXCR4 transcripts are well expressed in many non-hematopoietic vascular tissues like heart, brain, lung and colon. Federsppiel, et al. Genomics 16: 707-712 (1993). However, at the cellular level, this expression was selective for EC, as indicated by the failure of total RNA from human pulmonary artery smooth muscle cells (HPASMC) to hybridize with the CXCR4 cDNA probe. To understand the regulation of CXCR4 in EC during inflammation, we treated the HUVEC with various mediators and measured its steady state mRNA levels after normalization against the GAPDH cDNA probe.
In order to understand the kinetics of inflammation mediated transcriptional regulation of CXCR4, actinomycin D was used to determine the half-life of CXCR4 mRNA. […] Many cytokines and cytokine receptors, including CXCR4, have A-U rich elements in their untranslated regions that serve as targeting motifs for transcript degradation by specific RNAses. Shaw, et al., Cell 46: 659-667 (1986). In addition to its action as a transcriptional inhibitor, actinomycin D also has the unique and immediate effect of imparting stability to existing transcripts of mRNA undergoing rapid turnover.

HUVEC [1] = assay: Measurement of intracellular calcium [Ca2+]i in EC (fura-2); settings: for elevation of [Ca+2]i (mobilization of intracellular Ca2+): HUVEC / EC
Experimental: For measurements of intracellular calcium [Ca^2+]i, EC were loaded with 2 μM fura-2/AM (Molecular Probes, Eugene, OR), rinsed with 1 mM EDTA in Dulbecco's PBS, and resuspended into Kreb's Ringer's Henseleit (KRH) buffer, pH 7.4, containing 0.1% gelatin. Cells (1x 10^6/ml) were stored on ice and diluted for use 1:1 with fresh KRH buffer at 37° C. Fluorescence of fura-2 in cells was measured with a University of Pennsylvania Biomedical Instruments Group dual channel fluorometer. Data was captured as voltage recordings with the aid of a PC and analyzed by Igor version 1.28 software (WaveMetrics, Lake Oswego, Oreg.). Chemokines were added from concentrated stocks in water. To establish the integrity of EC, we also measured [Ca^2+]i stimulated by thrombin.
To determine whether the human EC express a functional CXCR4 receptor, our subsequent studies used SDF-1α along with several other chemokines to assess their ability to induce changes in intracellular levels of Ca^+2 and cause migration. […] In contrast, other chemokines like γ-IP10, IL-8, PF-4, MIP-1α, MCP-1, eotaxin and RANTES had no effect on EC.

HUVEC [2] = assay: HUVEC migration (chemotaxis) assay, Transwell; settings: for effect on EC chemotaxis: HUVEC
Experimental: HUVEC migration assay was performed using 5×10^5 cells/well (in CS-C medium) in the top chamber of a 6.5 mm diameter, 8-μM pore polycarbonate Transwell culture insert (Costar, Cambridge, Mass.) as reported previously (36). Incubation was carried out at 37° C. in 5% CO2 for 20 hrs. After incubation, migrated cells in the lower chamber were counted with a ZM Coulter counter (Coulter Diagnostics, Hialeah, Fla.). Percent migration was calculated based on the total initial input cells per well.
The Applicant next studied the chemotactic response of EC to SDF-1α. SDF-1α induced a pronounced migration of ˜40% of input EC in a concentration-related manner with an EC50 of 10-20 nM. It is intriguing to observe the high percentage of EC that migrated in response to SDF-1α, even though EC have limited migratory capability in comparison with neutrophils and monocytes. In contrast with other EC chemo-attractants like vitronectin, the chemotactic response to SDF-1α was kinetically robust, and a majority of the migrated cells entered the lower chamber without adhering to the Transwell filter. In these experiments, other chemokines like γ-IP10, IL-8, MIP-1α, MCP-1, eotaxin and RANTES had no effect on EC chemotaxis. Taken together, these observations have obvious biological significance, in that they indicate that SDF-1α plays a role in re-endothelialization after injury, an event that requires the directed migration of EC.

Molecule	CXCR4 mRNA levels (normalized against GAPDH) (CXCR4 mRNA)	elevation of [Ca+2]i (mobilization of intracellular Ca2+) (HUVEC [1])	effect on EC chemotaxis (HUVEC [2])	further results
Cc1c2oc3c(C)ccc(C(=O)N[C@@H]4C(=O)N[C@H](C(C)C)C(=O)N5CCC[C@H]5C(=O)N(C)CC(=O)N(C)[C@@H](C(C)C)C(=O)O[C@@H]4C)c3nc-2c(C(=O)N[C@@H]2C(=O)N[C@H](C(C)C)C(=O)N3CCC[C@H]3C(=O)N(C)CC(=O)N(C)[C@@H](C(C)C)C(=O)O[C@@H]2C)c(N)c1=O [actinomycin D] (I: T[dV]P[Sar][NMeV] / II: T[dV]P[Sar][NMeV]; ester I:1-I:C, II:1-II:C; linker I:N-II:N via Actinocin(9to1))	almost complete abrogation	–	–	steady state levels of CXCR4 mRNA after short term exposure (CXCR4 mRNA; EC cultures, exposure of only 15-30 minutes): sharply increasing
IFN-γ: recombinant human IFN-γ purchased from Genzyme	decrease	–	–	–
IL-1β: recombinant human IL-1β purchased from Genzyme	significant induction	–	–	–
IL-8: chemokine from R&D Systems	–	no effect	no effect	–
MCP-1: chemokine from R&D Systems	–	no effect	no effect	–
SDF-1α: stromal cell derived factor-1α, polypeptide of SEQ ID NO:4, CXC chemokine ligand of CXCR4; obtained from Gryphon Sciences	–	rapid, though variable elevation; also recorded: induced a rapid mobilization	–	concentration of maximal [Ca+2]i response (HUVEC [1]; HUVEC): 100 nM; migration, percent of input EC (HUVEC [2]; 20 hrs incubation, Transwell): ~40%; EC50 (HUVEC [2]; concentration-related migration of EC): 10 to 20 nM
TGF-β	no effect	–	–	–
TNF-α	to a lesser extent, TNF-α, caused a decrease	–	–	–
eotaxin: chemokine from R&D Systems	–	no effect	no effect	–
γ-IP10: chemokine from R&D Systems	no effect	no effect	no effect	–
B1	–	no effect	no effect	–
B2	–	no effect	no effect	–
B3	–	no effect	–	–
